Several values for one entry are separate records, joined by “and”; a condition that tells them apart may be missing. Equal entries are not always repeated. Inconclusive results and toxic doses are left out. How the source made its calls: active means survival T/C of 150% or more; inactive means T/C below 125% in these data.
System: P388 leukemia ip, CD2F1 mice, survival T/C
Assay: NCI In Vivo Anticancer Drug Screen. Data for tumor model P388 Leukemia (intraperitoneal) in CD2F1 (CDF1) mice
Conditions: endpoint: median survival time, higher = longer survival
In short: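 Mice carrying the transplanted tumor received test compound or vehicle. Survival was recorded in each group, and the value is the treated-group measurement divided by that of the vehicle-treated control group.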

[1] = dose: 60.0 mg/kg/injection, schedule: Q01DX005 (ip), vehicle: saline with Tween-80
[2] = dose: 240.0 mg/kg/injection, schedule: Q01DX005 (ip), vehicle: saline with Tween-80
[3] = dose: 100.0 mg/kg/injection, schedule: Q01DX009 (ip), vehicle: saline with Tween-80
[4] = dose: 200.0 mg/kg/injection, schedule: Q01DX009 (ip), vehicle: saline with Tween-80
[5] = dose: 120.0 mg/kg/injection, schedule: Q01DX005 (ip), vehicle: saline with Tween-80
[6] = dose: 100.0 mg/kg/injection, schedule: Q01DX001 (ip), vehicle: saline with Tween-80
[7] = dose: 200.0 mg/kg/injection, schedule: Q01DX001 (ip), vehicle: saline with Tween-80
[8] = dose: 400.0 mg/kg/injection, schedule: Q01DX001 (ip), vehicle: saline with Tween-80

Measured: T/C

OC1CC2c3ccccc3C1C1CCCCN21 (configuration not stated)
inactive: dose: 12.5 mg/kg/injection, schedule: Q04DX002 (ip), vehicle: saline 106 % of control | dose: 25.0 mg/kg/injection, schedule: Q04DX002 (ip), vehicle: saline 109 % of control | dose: 50.0 mg/kg/injection, schedule: Q04DX002 (ip), vehicle: saline 106 % of control

CC(C)N=Cc1ccccc1O.CC(C)N=Cc1ccccc1O.[Co]
inactive: dose: 12.5 mg/kg/injection, schedule: Q04DX003 (ip), vehicle: saline sonified 110 % of control | dose: 25.0 mg/kg/injection, schedule: Q04DX003 (ip), vehicle: saline sonified 100 % of control | dose: 50.0 mg/kg/injection, schedule: Q04DX003 (ip), vehicle: saline sonified 105 % of control

Nc1ccn(C2OC(C(OC3OC(CO)C(O)C(N)C3O)C(O)C(O)C(O)C(O)CO)C(N)C(O)C2O)c(=O)n1 (configuration not stated)
inactive: dose: 0.1 mg/kg/injection, schedule: Q01DX005 (ip), vehicle: saline 100 % of control | dose: 0.2 mg/kg/injection, schedule: Q01DX005 (ip), vehicle: saline 102 % of control | dose: 0.4 mg/kg/injection, schedule: Q01DX005 (ip), vehicle: saline 107 % of control | dose: 0.8 mg/kg/injection, schedule: Q01DX005 (ip), vehicle: saline 102 % of control

COc1cc([C@@H]2c3cc4c(cc3C[C@@H]3COC(=O)C32)OCO4)cc(OC)c1O (some centres not stated)
inactive: [1] 100 % of control and 120 % of control | [2] 107 % of control

Nc1ccc(/C=C/c2ccc3cccnc3c2)cc1
inactive: dose: 12.5 mg/kg/injection, schedule: Q01DX009 (ip), vehicle: DMSO 108 % of control | dose: 25.0 mg/kg/injection, schedule: Q01DX009 (ip), vehicle: DMSO 97 % of control | dose: 50.0 mg/kg/injection, schedule: Q01DX009 (ip), vehicle: DMSO 101 % of control

CN1CCC(C(=O)O)(c2ccccc2)CC1
inactive: dose: 9.4 mg/kg/injection, schedule: Q01DX009 (ip), vehicle: saline with Tween-80 100 % of control | dose: 18.8 mg/kg/injection, schedule: Q01DX009 (ip), vehicle: saline with Tween-80 98 % of control | dose: 37.5 mg/kg/injection, schedule: Q01DX009 (ip), vehicle: saline with Tween-80 97 % of control | dose: 75.0 mg/kg/injection, schedule: Q01DX009 (ip), vehicle: saline with Tween-80 111 % of control

C=C(C)C1Cc2c(ccc3c2OC2COc4cc(OC)c(OC)cc4C2C3=O)O1 (configuration not stated)
inactive: [3] 86 % of control | [4] 95 % of control | dose: 400.0 mg/kg/injection, schedule: Q01DX009 (ip), vehicle: saline with Tween-80 95 % of control

Fc1cccc(NC(=S)SCc2ccco2)c1
inactive: dose: 50.0 mg/kg/injection, schedule: Q01DX009 (ip), vehicle: suspension in saline 93 % of control | dose: 100.0 mg/kg/injection, schedule: Q01DX009 (ip), vehicle: suspension in saline 90 % of control | dose: 200.0 mg/kg/injection, schedule: Q01DX009 (ip), vehicle: suspension in saline 107 % of control

CCOc1cccs1
inactive: [1] 102 % of control | [5] 100 % of control

COc1ccc2nc(C)c3c(c2c1)C(=O)N(CCCN1CCN(CCCN2C(=O)c4c(C)nc5ccc(OC)cc5c4C2=O)CC1)C3=O
inactive: dose: 6.25 mg/kg/injection, schedule: Q01DX005 (ip), vehicle: Klucel (hydroxypropylcellulose) (HPC) 93 % of control | dose: 12.5 mg/kg/injection, schedule: Q01DX005 (ip), vehicle: Klucel (hydroxypropylcellulose) (HPC) 90 % of control | dose: 25.0 mg/kg/injection, schedule: Q01DX005 (ip), vehicle: Klucel (hydroxypropylcellulose) (HPC) 96 % of control

O=C1CC2CCC(CN2C(=O)OCc2ccccc2)O1 (configuration not stated)
inactive: dose: 60.0 mg/kg/injection, schedule: Q01DX005 (ip), vehicle: Klucel (hydroxypropylcellulose) (HPC) 102 % of control | dose: 120.0 mg/kg/injection, schedule: Q01DX005 (ip), vehicle: Klucel (hydroxypropylcellulose) (HPC) 99 % of control | dose: 240.0 mg/kg/injection, schedule: Q01DX005 (ip), vehicle: Klucel (hydroxypropylcellulose) (HPC) 100 % of control

Ic1ccc([I+]c2ccc(I)cc2)cc1
inactive: dose: 25.0 mg/kg/injection, schedule: Q01DX001 (ip), vehicle: saline with Tween-80 100 % of control | dose: 50.0 mg/kg/injection, schedule: Q01DX001 (ip), vehicle: saline with Tween-80 99 % of control | [6] 95 % of control | [7] 100 % of control | [8] 100 % of control

OC1CCCCC1C1CCCCC1O (configuration not stated)
inactive: [6] 105 % of control | [7] 99 % of control | [8] 104 % of control

O=c1cc[nH]c(=O)o1
inactive: dose: 6.25 mg/kg/injection, schedule: Q01DX009 (ip), vehicle: water 108 % of control | dose: 12.5 mg/kg/injection, schedule: Q01DX009 (ip), vehicle: water 119 % of control | dose: 25.0 mg/kg/injection, schedule: Q01DX009 (ip), vehicle: water 124 % of control | dose: 50.0 mg/kg/injection, schedule: Q01DX009 (ip), vehicle: water 121 % of control

Cc1cn2c(n1)Nc1sc3c(c1C2)CCCC3
inactive: [1] 101 % of control | [5] 103 % of control | [2] 100 % of control

CCOC(=O)c1nc(OCC)nc(OCC)c1C#CCO
inactive: dose: 12.5 mg/kg/injection, schedule: Q01DX009 (ip), vehicle: distilled water + Tween-80 95 % of control | dose: 25.0 mg/kg/injection, schedule: Q01DX009 (ip), vehicle: distilled water + Tween-80 93 % of control | dose: 50.0 mg/kg/injection, schedule: Q01DX009 (ip), vehicle: distilled water + Tween-80 102 % of control | dose: 100.0 mg/kg/injection, schedule: Q01DX009 (ip), vehicle: distilled water + Tween-80 98 % of control

O=c1c2sc3ccccc3c2ncn1C1CCCCC1
inactive: dose: 50.0 mg/kg/injection, schedule: Q01DX005 (ip), vehicle: Klucel (hydroxypropylcellulose) (HPC) 98 % of control | dose: 100.0 mg/kg/injection, schedule: Q01DX005 (ip), vehicle: Klucel (hydroxypropylcellulose) (HPC) 100 % of control | dose: 200.0 mg/kg/injection, schedule: Q01DX005 (ip), vehicle: Klucel (hydroxypropylcellulose) (HPC) 93 % of control

O=C(Nc1ccc(C2=NCCN2)cc1)c1cc(Cl)cc(C(=O)Nc2ccc(C3=NCCN3)cc2)c1
inactive: dose: 140.0 mg/kg/injection, schedule: Q01DX010 (ip), vehicle: saline 95 % of control | dose: 210.0 mg/kg/injection, schedule: Q01DX010 (ip), vehicle: saline 90 % of control | dose: 315.0 mg/kg/injection, schedule: Q01DX010 (ip), vehicle: saline 100 % of control | dose: 473.0 mg/kg/injection, schedule: Q01DX010 (ip), vehicle: saline 100 % of control

C/C=C1\C[C@H]2C(=O)Nc3cc(O)c(OC)cc3C(=O)N2C1
inactive: dose: 25.0 mg/kg/injection, schedule: Q01DX005 (ip), vehicle: saline with Tween-80 96 % of control | dose: 50.0 mg/kg/injection, schedule: Q01DX005 (ip), vehicle: saline with Tween-80 105 % of control | dose: 100.0 mg/kg/injection, schedule: Q01DX005 (ip), vehicle: saline with Tween-80 106 % of control

CCN(CC)[Si](C)(C)N(CC)CC
inactive: dose: 30.0 mg/kg/injection, schedule: Q01DX005 (ip), vehicle: saline with Tween-80 100 % of control | [1] 100 % of control | [5] 104 % of control

CC(C)OP(=S)(OC(C)C)SC(C)C
inactive: dose: 50.0 mg/kg/injection, schedule: Q01DX009 (ip), vehicle: saline 104 % of control | dose: 100.0 mg/kg/injection, schedule: Q01DX009 (ip), vehicle: saline 119 % of control | dose: 200.0 mg/kg/injection, schedule: Q01DX009 (ip), vehicle: saline 116 % of control

CCC(=O)/C(=C\c1ccccc1Cl)C(C)=O
inactive: dose: 100.0 mg/kg/injection, schedule: Q04DX003 (ip), vehicle: saline with Tween-80 105 % of control | dose: 200.0 mg/kg/injection, schedule: Q04DX003 (ip), vehicle: saline with Tween-80 110 % of control | dose: 400.0 mg/kg/injection, schedule: Q04DX003 (ip), vehicle: saline with Tween-80 95 % of control

CC(=O)OC(C)C[N+](C)(C)C (configuration not stated)
inactive: dose: 100.0 mg/kg/injection, schedule: Q04DX002 (ip), vehicle: saline 102 % of control | dose: 200.0 mg/kg/injection, schedule: Q04DX002 (ip), vehicle: saline 102 % of control | dose: 400.0 mg/kg/injection, schedule: Q04DX002 (ip), vehicle: saline 94 % of control

O=C1c2ccccc2Cc2c(NCc3ccccc3)ncnc2N1Cc1ccccc1
inactive: dose: 50.0 mg/kg/injection, schedule: Q01DX009 (ip), vehicle: saline with Tween-80 104 % of control | [3] 101 % of control | [4] 90 % of control

— PubChem BioAssay AID330 (DTP/NCI, 2004)
